{"source": "patent US6613322B2", "about": "“Method for treating a subject suffering from conditions associated with an extracellular zinc sphingomyelinase” (The Trustees of Columbia University in the City of New York, priority 1997, dated 2003)", "tested_on": "LDL", "conditions": "10-fold molar excess of choline-phosphate, no SMase", "procedure": "Next it was determined which of the three consequences of SMase enzymatic activity, namely, generation of choline-phosphate, generation of ceramide, and depletion of SM, is responsible for LDL aggregation. […] Incubating LDL with a 10-fold molar excess of choline-phosphate was performed.", "data": [{"smiles": "C[N+](C)(C)CCOP(=O)(O)O", "note": "[choline-phosphate]", "values": [{"measurement": "turbidity of LDL", "value": "failed to increase the turbidity of LDL"}]}]}
